The source of these data is US8722703B2, “Fused amino pyridines for the treatment of brain tumors” (Curis, Inc., priority 2009, dated 2014).

Read-outs that look alike come from different tables or passages of the source.

This data set can be described thus: PK in mouse brain after i.v. and oral delivery, cassette study in HCT116 tumor-bearing mice. In kind it is in vivo.
The mark [1] stands for this setting: female, athymic nude (CD-1 nu/nu), mouse, iv, i.v. delivery (Cassette Study), read-out: HSP90 Compounds in Mouse Brain.
Where [2] appears, read: female, athymic nude (CD-1 nu/nu), mouse, oral delivery (10 mg/g Cassette Study), read-out: HSP90 Compounds in Mouse Brain.

Consider `CN(C)c1cc2c(cc1Sc1nc3c(N)nccc3n1CCNCC(C)(C)C)OCO2` [Compound 15, 2-(6-(dimethylamino)benzo[d][1,3]dioxol-5-ylthio)-1-(2-(neopentylamino)ethyl)-1H-imidazo[4,5-c]pyridin-4-amine], for which the concentration at 0.08333 hr (female, athymic nude (CD-1 nu/nu), mouse, iv, i.v. delivery (Cassette Study), Time 0.08333 hr, read-out: HSP90 Compounds in Mouse Brain) stood at 3240 ng/g. In addition, under setting [1], the concentration at 0.5 hr stood at 1450 ng/g, the concentration at 2 hr was 773 ng/g, the concentration at 6 hr amounted to 177 ng/g and the concentration at 24 hr came out at 27 ng/g. Besides, under setting [1], the concentration at 48 hr amounted to 4.8 ng/g. In addition, under setting [2], the concentration at 0.5 hr is 61.2 ng/g, the concentration at 2 hr was determined as 256 ng/g, the concentration at 6 hr was determined as 218 ng/g and the concentration at 24 hr amounted to 5.9 ng/g. The concentration at 48 hr under setting [2] turned out to be 0.7 ng/g. For the same compound, the “AUC i.v. in the brain” value (i.v.) is 6761.3 ng·h/g. Besides, the “AUC p.o. in the brain” value (p.o.) came to 3293.9 ng·h/g. Also, the “F (%) in the brain” value (p.o. vs i.v.) was found to be 24.4%.
